Laboratory results taken from US20190337971A1, “PANTETHEINE DERIVATIVES FOR THE TREATMENT OF NEUROLOGIC DISORDERS” (Retrophin, Inc., priority 2016, published 2019).

The compounds below were run on PANK2−/− IMR32 cells (assay: Coenzyme A assay in PANK2 silenced cells (LC-MS quantification of free CoA)). Conditions: Homo sapiens, IMR-32; compound concentration 1 uM; fold increase in CoA levels relative to controls; treated twice, 24 h + 24 h.
Type: cell-based, human
Procedure: A human neuroblastoma IMR32 cell line (ATCC) with stably PANK2 silencing was obtained by lentiviral-delivered small hairpin RNA and cultured in MEM (Invitrogen) supplemented with 10% fetal bovine serum, 2 mM glutamine, 1% penicillin-streptomycin, 1 mM sodium pyruvate, 1 mM non-essential amino acids, and 1.5 g/l sodium bicarbonate.
A non-silencing shRNA construct (scrambled shRNA) and an empty vector expressing GFP alone were used as negative controls. The GFP tag subcloned into the lentiviral vectors was used to monitor the transfection efficiency.
Three days after transduction medium was removed and replaced with fresh medium containing […] puromycin. […] The level of PANK2 expression in selected clones was assessed by Western Blot analysis.
To quantify CoA, PANK2−/− IMR32 cells were plated on 12-well culture plates (Corning) at a density of 0.2×10^6 cells per well. […] Controls with medium containing 0.1% DMSO without test compounds were also included in each plate. […] Before LC-MS analysis of CoA levels, cells were harvested, counted, and collected in a 15 ml falcon tube and centrifuged at 200×g for 5 min at 4° C. Supernatant was removed and cell pellet was washed in 10 ml of ice-cold PBS. To further confirm that the numbers of cells in each sample were equivalent, an equal fraction of pellet was collected from each sample and subjected to protein determination analysis. After centrifugation and supernatant removal, the cell pellet was rapidly frozen in Liquid Nitrogen and stored at −80° C. until analysis.
Intracellular CoA levels were calculated considering an intracellular volume of 1 million cells=2 μl.
The 1*10^6 cellular pellet was extracted with 120 μl of aqueous 20% TFA.
100 μL samples of supernatant were dried under N2 at 20° C. in the dark.
Samples were re-dissolved in 100 μl of 10 mM NH4^+ AcO^− buffer pH 5.1+IS (Dextrorphan 50 ng/ml), stirred for 2 min, sonicated in ultrasonic bath for 1 min, then stirred again for 1 min, and injected into LC-MS.
LC-MS/MS was performed using an Agilent HPLC (1100 Series, USA). The LC system was interfaced with an API-4000 Q-Trap triple quadrupole mass spectrometer (AB Sciex, Toronto, Canada) equipped with a TurboIonSpray ionization source operating in positive ion mode. Analyst™ software version 1.6 (AB Sciex, Toronto, Canada) was used for data acquisition and processing. CoA was separated using a Luna C18 column (2.0×50 mm; 5 μm particle size), column at 25° C. and flow rate of 0.2 ml/min. Injection volume was 15 μl. The mobile phases consisted of water containing 10 mM ammonium acetate pH 7 (mobile phase A) and MeCN-2-propanol 9:1 (mobile phase B).
Results are expressed as fold increase in CoA levels relative to controls (using LC-MS quantification of free CoA).
In the case of `CC(=O)SCCNC(=O)CCNC(=O)[C@@H]1OP(=O)(OCOC(=O)c2cccc(C)c2)OCC1(C)C` (stereo partly drawn) [R1039, (((4R)-4-((3-((2-(acetylthio)ethyl)amino)-3-oxopropyl)carbamoyl)-5,5-dimethyl-2-oxido-1,3,2-dioxaphosphinan-2-yl)oxy)methyl 3-methylbenzoate], the fold induction at 1 µM is reported as 27.4. `COc1cccc(C(=O)OCOP2(=O)OCC(C)(C)[C@H](C(=O)NCCC(=O)NCCSC(C)=O)O2)c1` (stereo partly drawn) [R1038, (((4R)-4-((3-((2-(acetylthio)ethyl)amino)-3-oxopropyl)carbamoyl)-5,5-dimethyl-2-oxido-1,3,2-dioxaphosphinan-2-yl)oxy)methyl 3-methoxybenzoate] was tested, and the fold induction at 1 µM was 26.2. In the case of `CC(=O)SCCNC(=O)CCNC(=O)[C@@H]1OP(=O)(OCOC(=O)c2cc(C(C)(C)C)nn2C)OCC1(C)C` (stereo partly drawn) [R1010, (((4R)-4-((3-((2-(acetylthio)ethyl)amino)-3-oxopropyl)carbamoyl)-5,5-dimethyl-2-oxido-1,3,2-dioxaphosphinan-2-yl)oxy)methyl 3-(tert-butyl)-1-methyl-1H-pyrazole-5-carboxylate], the fold induction at 1 µM is reported as 200. `CC(=O)SCCNC(=O)CCNC(=O)[C@@H]1O[P@@](=O)(OCOC(=O)c2cc(C(C)(C)C)nn2C)OCC1(C)C` [R1045, (((2S,4R)-4-((3-((2-(acetylthio)ethyl)amino)-3-oxopropyl)carbamoyl)-5,5-dimethyl-2-oxido-1,3,2-dioxaphosphinan-2-yl)oxy)methyl 3-(tert-butyl)-1-methyl-1H-pyrazole-5-carboxylate] gave a fold induction at 1 µM of 2.3. Compound `CC(=O)SCCNC(=O)CCNC(=O)[C@@H]1OP(=O)(OCOC(=O)c2ccc(C(F)(F)F)cc2)OCC1(C)C` (stereo partly drawn) [R1037, (((4R)-4-((3-((2-(acetylthio)ethyl)amino)-3-oxopropyl)carbamoyl)-5,5-dimethyl-2-oxido-1,3,2-dioxaphosphinan-2-yl)oxy)methyl 4-(trifluoromethyl)benzoate] has a fold induction at 1 µM of 30.1. In the case of `CC(=O)SCCNC(=O)CCNC(=O)[C@@H]1O[P@@](=O)(OCOC(=O)c2cc(C(C)(C)C)n[nH]2)OCC1(C)C` [R1016, (((2S,4R)-4-((3-((2-(acetylthio)ethyl)amino)-3-oxopropyl)carbamoyl)-5,5-dimethyl-2-oxido-1,3,2-dioxaphosphinan-2-yl)oxy)methyl 3-(tert-butyl)-1H-pyrazole-5-carboxylate], the fold induction at 1 µM is reported as 323. `CC(=O)SCCNC(=O)CCNC(=O)[C@@H]1O[P@@](=O)(OCOC(=O)OC(C)C)OCC1(C)C` [R1017, S-(2-(3-((2S,4R)-2-(((isopropoxycarbonyl)oxy)methoxy)-5,5-dimethyl-2-oxido-1,3,2-dioxaphosphinane-4-carboxamido)propanamido)ethyl) ethanethioate] was tested, and the fold induction at 1 µM was 18.4. In the case of `CC(=O)SCCNC(=O)CCNC(=O)[C@@H]1OP(=O)(OCOC(=O)c2ccc(C)cc2)OCC1(C)C` (stereo partly drawn) [R1036, (((4R)-4-((3-((2-(acetylthio)ethyl)amino)-3-oxopropyl)carbamoyl)-5,5-dimethyl-2-oxido-1,3,2-dioxaphosphinan-2-yl)oxy)methyl 4-methylbenzoate], the fold induction at 1 µM is reported as 52.2. `CC(=O)SCCNC(=O)CCNC(=O)[C@@H]1OP(=O)(OCOC(=O)C(C)C)OCC1(C)C` (stereo partly drawn) [R1024, (((4R)-4-((3-((2-(acetylthio)ethyl)amino)-3-oxopropyl)carbamoyl)-5,5-dimethyl-2-oxido-1,3,2-dioxaphosphinan-2-yl)oxy)methyl isobutyrate] was tested, and the fold induction at 1 µM was 1.4. In the case of `CC(=O)SCCNC(=O)CCNC(=O)[C@@H]1O[P@](=O)(OCOC(=O)c2cc(C(C)(C)C)nn2C)OCC1(C)C` [R1044, (((2R,4R)-4-((3-((2-(acetylthio)ethyl)amino)-3-oxopropyl)carbamoyl)-5,5-dimethyl-2-oxido-1,3,2-dioxaphosphinan-2-yl)oxy)methyl 3-(tert-butyl)-1-methyl-1H-pyrazole-5-carboxylate], the fold induction at 1 µM is reported as 20.3. In the case of `CC(=O)SCCNC(=O)CCNC(=O)[C@@H]1OP(=O)(OCOC(=O)c2cccc(Cl)c2)OCC1(C)C` (stereo partly drawn) [R1034, (((4R)-4-((3-((2-(acetylthio)ethyl)amino)-3-oxopropyl)carbamoyl)-5,5-dimethyl-2-oxido-1,3,2-dioxaphosphinan-2-yl)oxy)methyl 3-chlorobenzoate], the fold induction at 1 µM is reported as 29.6. With `CC(=O)SCCNC(=O)CCNC(=O)[C@@H]1OP(=O)(OCOC(=O)c2ccc(Cl)cc2)OCC1(C)C` (stereo partly drawn) [R1033, (((4R)-4-((3-((2-(acetylthio)ethyl)amino)-3-oxopropyl)carbamoyl)-5,5-dimethyl-2-oxido-1,3,2-dioxaphosphinan-2-yl)oxy)methyl 4-chlorobenzoate] the fold induction at 1 µM was 25.8.

Same assay, conditions: Homo sapiens, IMR-32; compound concentration 10 uM; fold increase in CoA levels relative to controls; treated twice, 24 h + 24 h
In the case of `CC(=O)OCCNC(=O)OCOP1(=O)OCC(C)(C)[C@H](C(=O)NCCC(=O)NCCSC(C)=O)O1` (stereo partly drawn) [R1025, 2-((((((4R)-4-((3-((2-(acetylthio)ethyl)amino)-3-oxopropyl)carbamoyl)-5,5-dimethyl-2-oxido-1,3,2-dioxaphosphinan-2-yl)oxy)methoxy)carbonyl)amino)ethyl acetate], the fold induction at 10 µM is reported as 1.4.

Same assay, conditions: Homo sapiens, IMR-32; compound concentration 50 uM; fold increase in CoA levels relative to controls; treated twice, 24 h + 24 h
Compound `CC(=O)SCCNC(=O)CCNC(=O)[C@@H]1OP(=O)(OCOC(=O)NC(C)(C)COC(=O)C(C)(C)C)OCC1(C)C` (stereo partly drawn) [R1028, 2-((((((4R)-4-((3-((2-(acetylthio)ethyl)amino)-3-oxopropyl)carbamoyl)-5,5-dimethyl-2-oxido-1,3,2-dioxaphosphinan-2-yl)oxy)methoxy)carbonyl)amino)-2-methylpropyl pivalate] has a fold induction at 50 µM of 5.7. In the case of `COC(=O)[C@@H](NP1(=O)OCC(C)(C)[C@H](C(=O)NCCC(=O)NCCSC(C)=O)O1)C(C)C` (stereo partly drawn) [R1026, methyl ((4R)-4-((3-((2-(acetylthio)ethyl)amino)-3-oxopropyl)carbamoyl)-5,5-dimethyl-2-oxido-1,3,2-dioxaphosphinan-2-yl)-L-valinate], the fold induction at 50 µM is reported as 2.5. With `CC(=O)SCCNC(=O)CCNC(=O)[C@@H]1OP(=O)(OCOC(=O)c2ccc(C(F)(F)F)cn2)OCC1(C)C` (stereo partly drawn) [R1040, (((4R)-4-((3-((2-(acetylthio)ethyl)amino)-3-oxopropyl)carbamoyl)-5,5-dimethyl-2-oxido-1,3,2-dioxaphosphinan-2-yl)oxy)methyl 5-(trifluoromethyl)picolinate] the fold induction at 50 µM was 4.5. In the case of `COC(=O)[C@H](C)N[P@]1(=O)OCC(C)(C)[C@H](C(=O)NCCC(=O)NCCSC(C)=O)O1` [R1004, methyl ((2S,4R)-4-((3-((2-(acetylthio)ethyl)amino)-3-oxopropyl)carbamoyl)-5,5-dimethyl-2-oxido-1,3,2-dioxaphosphinan-2-yl)-L-alaninate], the fold induction at 50 µM is reported as 2.1. In the case of `CC(=O)OCC(C)(C)NC(=O)OCOP1(=O)OCC(C)(C)[C@H](C(=O)NCCC(=O)NCCSC(C)=O)O1` (stereo partly drawn) [R1027, 2-((((((4R)-4-((3-((2-(acetylthio)ethyl)amino)-3-oxopropyl)carbamoyl)-5,5-dimethyl-2-oxido-1,3,2-dioxaphosphinan-2-yl)oxy)methoxy)carbonyl)amino)-2-methylpropyl acetate], the fold induction at 50 µM is reported as 2.8. `COC(=O)[C@@H](N[P@@]1(=O)OCC(C)(C)[C@H](C(=O)NCCC(=O)NCCSC(C)=O)O1)C(C)C` [R1014, methyl ((2R,4R)-4-((3-((2-(acetylthio)ethyl)amino)-3-oxopropyl)carbamoyl)-5,5-dimethyl-2-oxido-1,3,2-dioxaphosphinan-2-yl)-L-valinate] showed a fold induction at 50 µM of 1.7.

Same assay, conditions: compound concentration 10 uM; fold increase in CoA levels relative to controls; treated twice, 24 h + 24 h
In the case of `CC(=O)SCCNC(=O)CCNC(=O)[C@@H]1O[P@](=O)(Oc2ccccc2)OCC1(C)C` [R1042, S-(2-(3-((2R,4R)-5,5-dimethyl-2-oxido-2-phenoxy-1,3,2-dioxaphosphinane-4-carboxamido)propanamido)ethyl) ethanethioate], the “PANK2−/− CoA Fold increase” value is reported as 1.0 fold. In the case of `CC(=O)SCCNC(=O)CCNC(=O)[C@@H]1O[P@@](=O)(Oc2ccccc2)OCC1(C)C` [R1041, S-(2-(3-((2S,4R)-5,5-dimethyl-2-oxido-2-phenoxy-1,3,2-dioxaphosphinane-4-carboxamido)propanamido)ethyl) ethanethioate], the “PANK2−/− CoA Fold increase” value is reported as 1.8 fold.
